Results published in patent publication US9340590B2 (priority 2011, dated 2016).
pIC50: −log10 of the molar value. Like-named read-outs stand apart in the source and are kept apart here. Positions of bridges follow the written chain, without caps; N, C: chain ends. Non-standard residues stand in square brackets, D forms with d. Residues, ends and D or L forms follow the SMILES beside them. Pra = C#CC[C@H](N)C(=O)O; Sar = CNCC(=O)O

What was measured:
Assay in all cases: cell-based
hNav1.3 = hNav1.3 (Homo sapiens, UniProt Q9NY46); settings: IonWorks Quattro, use-dependent protocol, hNav1.3; read-out: IWQ Use Nav1.3
hNav1.5 = hNav1.5 (Homo sapiens, UniProt Q14524)
Sequence of hNav1.5 (Q14524 whole entry, looked up): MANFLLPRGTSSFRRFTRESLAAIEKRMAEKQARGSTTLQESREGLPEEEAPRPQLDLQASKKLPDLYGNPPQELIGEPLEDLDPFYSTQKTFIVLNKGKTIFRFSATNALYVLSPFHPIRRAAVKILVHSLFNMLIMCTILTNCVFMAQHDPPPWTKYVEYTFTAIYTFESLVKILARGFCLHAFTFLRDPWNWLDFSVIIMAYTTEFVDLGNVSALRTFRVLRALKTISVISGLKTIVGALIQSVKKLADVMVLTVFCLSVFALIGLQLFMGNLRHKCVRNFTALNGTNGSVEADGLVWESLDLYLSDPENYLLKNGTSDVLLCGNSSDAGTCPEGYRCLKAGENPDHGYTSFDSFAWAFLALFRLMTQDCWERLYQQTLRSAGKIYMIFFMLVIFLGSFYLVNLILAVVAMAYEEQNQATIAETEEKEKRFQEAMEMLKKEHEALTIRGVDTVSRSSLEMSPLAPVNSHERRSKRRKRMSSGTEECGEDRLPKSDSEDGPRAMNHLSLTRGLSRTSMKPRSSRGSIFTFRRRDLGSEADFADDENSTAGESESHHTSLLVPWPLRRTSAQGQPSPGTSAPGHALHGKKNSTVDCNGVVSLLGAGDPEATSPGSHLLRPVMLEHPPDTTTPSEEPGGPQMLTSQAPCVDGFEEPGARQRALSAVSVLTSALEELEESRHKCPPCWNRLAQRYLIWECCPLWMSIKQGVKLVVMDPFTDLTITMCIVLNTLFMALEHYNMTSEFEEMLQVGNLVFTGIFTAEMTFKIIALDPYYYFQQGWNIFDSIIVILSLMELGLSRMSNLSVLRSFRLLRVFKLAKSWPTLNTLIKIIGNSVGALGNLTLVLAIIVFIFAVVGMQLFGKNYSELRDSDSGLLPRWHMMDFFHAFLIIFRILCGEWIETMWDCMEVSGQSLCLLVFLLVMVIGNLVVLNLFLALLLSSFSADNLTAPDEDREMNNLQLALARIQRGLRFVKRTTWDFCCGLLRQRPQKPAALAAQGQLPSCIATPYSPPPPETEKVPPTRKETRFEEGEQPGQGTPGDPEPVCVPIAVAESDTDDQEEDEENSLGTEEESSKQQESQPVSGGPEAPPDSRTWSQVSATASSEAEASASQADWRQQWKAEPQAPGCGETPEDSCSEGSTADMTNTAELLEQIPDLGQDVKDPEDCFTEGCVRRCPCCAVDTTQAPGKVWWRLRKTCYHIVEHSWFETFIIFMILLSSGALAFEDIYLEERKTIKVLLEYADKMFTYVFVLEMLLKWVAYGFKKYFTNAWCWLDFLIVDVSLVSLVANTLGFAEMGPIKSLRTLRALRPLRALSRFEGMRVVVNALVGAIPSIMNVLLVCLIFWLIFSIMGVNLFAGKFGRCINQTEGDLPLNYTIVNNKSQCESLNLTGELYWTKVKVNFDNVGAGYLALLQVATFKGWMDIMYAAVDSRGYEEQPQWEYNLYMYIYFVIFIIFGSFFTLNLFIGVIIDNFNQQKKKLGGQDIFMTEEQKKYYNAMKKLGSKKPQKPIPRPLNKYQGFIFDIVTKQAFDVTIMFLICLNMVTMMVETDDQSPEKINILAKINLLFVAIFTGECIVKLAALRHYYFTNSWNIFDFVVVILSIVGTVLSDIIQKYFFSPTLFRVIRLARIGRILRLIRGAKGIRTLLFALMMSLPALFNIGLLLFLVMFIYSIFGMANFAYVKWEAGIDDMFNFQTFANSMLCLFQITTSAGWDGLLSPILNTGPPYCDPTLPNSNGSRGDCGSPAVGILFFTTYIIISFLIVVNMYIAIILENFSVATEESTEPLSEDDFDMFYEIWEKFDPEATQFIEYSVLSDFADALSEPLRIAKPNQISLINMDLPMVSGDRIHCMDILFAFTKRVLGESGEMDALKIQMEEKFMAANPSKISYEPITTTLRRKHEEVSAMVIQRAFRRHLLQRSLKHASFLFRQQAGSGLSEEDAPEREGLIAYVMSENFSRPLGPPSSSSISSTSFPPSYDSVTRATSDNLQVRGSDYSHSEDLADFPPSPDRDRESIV

hNav1.7 = hNav1.7 (Homo sapiens, UniProt Q15858); assay type: cell-based; settings: IonWorks Quattro, use-dependent protocol, hNav1.7; read-out: IWQ Use Nav1.7
Sequence of hNav1.7 (Q15858 whole entry, looked up): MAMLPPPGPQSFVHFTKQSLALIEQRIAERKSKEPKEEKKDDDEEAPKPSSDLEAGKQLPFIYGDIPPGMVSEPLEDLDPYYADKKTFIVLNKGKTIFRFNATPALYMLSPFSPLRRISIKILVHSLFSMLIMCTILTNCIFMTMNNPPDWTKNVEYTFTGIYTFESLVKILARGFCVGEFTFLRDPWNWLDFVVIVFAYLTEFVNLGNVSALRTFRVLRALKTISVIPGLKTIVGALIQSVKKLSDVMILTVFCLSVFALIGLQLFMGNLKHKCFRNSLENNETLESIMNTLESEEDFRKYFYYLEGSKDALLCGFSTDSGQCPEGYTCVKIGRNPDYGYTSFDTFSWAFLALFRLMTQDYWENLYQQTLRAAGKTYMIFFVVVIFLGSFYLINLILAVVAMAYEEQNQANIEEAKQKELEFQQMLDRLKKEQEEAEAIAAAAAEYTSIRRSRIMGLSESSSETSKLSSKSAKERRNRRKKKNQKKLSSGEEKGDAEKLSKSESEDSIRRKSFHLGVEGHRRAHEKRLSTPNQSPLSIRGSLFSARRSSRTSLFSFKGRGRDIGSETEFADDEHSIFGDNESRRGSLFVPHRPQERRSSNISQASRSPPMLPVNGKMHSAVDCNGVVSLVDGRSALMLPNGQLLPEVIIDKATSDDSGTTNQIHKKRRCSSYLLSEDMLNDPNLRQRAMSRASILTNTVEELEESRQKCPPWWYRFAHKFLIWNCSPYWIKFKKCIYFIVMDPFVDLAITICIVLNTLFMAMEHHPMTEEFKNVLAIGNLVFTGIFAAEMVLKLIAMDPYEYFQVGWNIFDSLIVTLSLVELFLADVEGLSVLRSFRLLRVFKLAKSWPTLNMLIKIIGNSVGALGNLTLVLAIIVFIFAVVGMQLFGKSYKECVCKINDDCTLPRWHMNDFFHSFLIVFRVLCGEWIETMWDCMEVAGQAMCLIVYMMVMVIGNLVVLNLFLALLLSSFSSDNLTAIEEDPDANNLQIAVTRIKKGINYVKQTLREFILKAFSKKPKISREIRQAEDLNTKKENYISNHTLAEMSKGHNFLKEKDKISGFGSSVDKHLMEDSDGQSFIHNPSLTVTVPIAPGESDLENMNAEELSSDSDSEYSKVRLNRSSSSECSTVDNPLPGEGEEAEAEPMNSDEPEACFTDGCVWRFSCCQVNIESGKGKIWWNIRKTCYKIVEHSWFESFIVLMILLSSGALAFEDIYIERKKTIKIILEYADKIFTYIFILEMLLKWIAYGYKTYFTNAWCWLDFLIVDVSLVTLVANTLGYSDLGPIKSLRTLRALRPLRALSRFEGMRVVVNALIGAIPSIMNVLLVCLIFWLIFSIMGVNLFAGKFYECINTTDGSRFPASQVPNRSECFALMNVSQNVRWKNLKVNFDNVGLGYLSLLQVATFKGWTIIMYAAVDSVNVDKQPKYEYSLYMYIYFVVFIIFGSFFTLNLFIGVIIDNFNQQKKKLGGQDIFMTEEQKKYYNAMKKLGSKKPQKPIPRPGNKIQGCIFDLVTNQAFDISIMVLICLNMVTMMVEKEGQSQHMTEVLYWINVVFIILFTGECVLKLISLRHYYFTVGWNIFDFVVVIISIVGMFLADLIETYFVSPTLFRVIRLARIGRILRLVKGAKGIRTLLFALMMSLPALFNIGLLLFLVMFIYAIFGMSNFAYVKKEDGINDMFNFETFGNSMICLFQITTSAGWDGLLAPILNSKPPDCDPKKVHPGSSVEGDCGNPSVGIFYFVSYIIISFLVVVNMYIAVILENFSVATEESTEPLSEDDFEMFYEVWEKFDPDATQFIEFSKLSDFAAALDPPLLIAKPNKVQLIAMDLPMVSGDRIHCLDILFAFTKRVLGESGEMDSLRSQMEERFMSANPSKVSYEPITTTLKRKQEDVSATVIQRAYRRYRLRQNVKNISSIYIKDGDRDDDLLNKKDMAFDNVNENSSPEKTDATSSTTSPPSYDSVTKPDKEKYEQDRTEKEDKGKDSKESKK

[1] = IonWorks Quattro, use-dependent protocol, hNav1.5, read-out: IWQ Use Nav1.5

| SMILES | pIC50 (hNav1.3) | pIC50 (hNav1.5; [1]) | pIC50 (hNav1.7) | pIC50 (hNav1.5; IWQ Use Nav1.5) |
| --- | --- | --- | --- | --- |
| CC[C@H](C)[C@@H]1NC(=O)[C@@H]2CSSC[C@@H]3NC(=O)[C@H](C(C)C)NC(=O)[C@H](CC(C)C)NC(=O)[C@H](CC(N)=O)NC(=O)[C@@H]4CCCN4C(=O)[C@H](CCCNC(=N)N)NC(=O)[C@H](CSSC[C@H](NC(=O)[C@@H](N)CC(=O)O)C(=O)N[C@@H](CC(C)C)C(=O)NCC(=O)N(C)CC(=O)N[C@@H](Cc4ccccc4)C(=O)N[C@@H](CCCNC(=N)N)C(=O)N[C@@H](CCCCN)C(=O)N2)NC(=O)[C@H](CSSC[C@@H](C(=O)N[C@@H](CCCCN)C(=O)N[C@@H](Cc2ccc(O)cc2)C(=O)N[C@H](C(=O)N[C@@H](Cc2ccccc2)C(N)=O)C(C)C)NC(=O)[C@H](Cc2c[nH]c4ccccc24)NC(=O)[C@H](CCCCN)NC(=O)[C@H](Cc2c[nH]cn2)NC(=O)[C@H]([C@@H](C)O)NC(=O)[C@H](CCCNC(=N)N)NC(=O)[C@H](CO)NC3=O)NC(=O)[C@H](CCCCN)NC(=O)[C@H](CC(=O)O)NC(=O)[C@H](CC(N)=O)NC(=O)[C@H](CC(=O)O)NC(=O)[C@@H]2CCCN2C1=O [compound 632] (H-DCLG[Sar]FRKCIPDNDKCCRPNLVCSRTHKWCKYVF-NH2; disulfide 2-17, 9-23, 16-30) | 6.35 | 4.98 | 6.17 |  |
| CC[C@H](C)[C@@H]1NC(=O)[C@@H]2CSSC[C@@H]3NC(=O)[C@H](C(C)C)NC(=O)[C@H](CC(C)C)NC(=O)[C@H](CC(N)=O)NC(=O)[C@@H]4CCCN4C(=O)[C@H](CCCNC(=N)N)NC(=O)[C@H](CSSC[C@H](NC(=O)[C@@H](N)CC(=O)O)C(=O)N[C@@H](CC(C)C)C(=O)NCC(=O)NCCC(=O)N[C@@H](CC(C)C)C(=O)N[C@@H](CCCNC(=N)N)C(=O)N[C@@H](CCCCN)C(=O)N2)NC(=O)[C@H](CSSC[C@@H](C(=O)N[C@@H](CCCCN)C(=O)N[C@@H](Cc2ccc(O)cc2)C(=O)N[C@H](C(=O)N[C@@H](Cc2ccccc2)C(N)=O)C(C)C)NC(=O)[C@H](Cc2c[nH]c4ccccc24)NC(=O)[C@H](CCCCN)NC(=O)[C@H](Cc2c[nH]cn2)NC(=O)[C@H]([C@@H](C)O)NC(=O)[C@H](CCCNC(=N)N)NC(=O)[C@H](CO)NC3=O)NC(=O)[C@H](CCCCN)NC(=O)[C@H](CC(=O)O)NC(=O)[C@H](CC(N)=O)NC(=O)[C@H](CC(=O)O)NC(=O)[C@@H]2CCCN2C1=O [compound 634] | 4.74 | 4.85 | 5.03 |  |
| CC[C@@H]1NC(=O)CNC(=O)[C@H](CC(C)C)NC(=O)[C@@H](NC(=O)[C@@H](N)CC(=O)O)CSSC[C@@H]2NC(=O)[C@@H]3CSSC[C@@H](C(=O)N[C@@H](CCCCN)C(=O)N[C@@H](Cc4ccc(O)cc4)C(=O)N[C@H](C(=O)N[C@@H](Cc4ccccc4)C(N)=O)C(C)C)NC(=O)[C@H](Cc4c[nH]c5ccccc45)NC(=O)[C@H](CCCCN)NC(=O)[C@H](Cc4c[nH]cn4)NC(=O)[C@H]([C@@H](C)O)NC(=O)[C@H](CCCNC(=N)N)NC(=O)[C@H](CO)NC(=O)[C@H](CSSC[C@H](NC(=O)[C@H](CCCCN)NC(=O)[C@H](CCCNC(=N)N)NC(=O)[C@H](CC(C)C)NC1=O)C(=O)N[C@@H]([C@@H](C)CC)C(=O)N1CCC[C@H]1C(=O)N[C@@H](CC(=O)O)C(=O)N[C@@H](CC(N)=O)C(=O)N[C@@H](CC(=O)O)C(=O)N[C@@H](CCCCN)C(=O)N3)NC(=O)[C@H](C(C)C)NC(=O)[C@H](CC(C)C)NC(=O)[C@H](CC(N)=O)NC(=O)[C@@H]1CCCN1C(=O)[C@H](CCCNC(=N)N)NC2=O [compound 636] | 6.00 | 4.78 | 6.54 |  |
| CCC[C@@H]1NC(=O)CNC(=O)[C@H](CC(C)C)NC(=O)[C@@H](NC(=O)[C@@H](N)CC(=O)O)CSSC[C@@H]2NC(=O)[C@@H]3CSSC[C@@H](C(=O)N[C@@H](CCCCN)C(=O)N[C@@H](Cc4ccc(O)cc4)C(=O)N[C@H](C(=O)N[C@@H](Cc4ccccc4)C(N)=O)C(C)C)NC(=O)[C@H](Cc4c[nH]c5ccccc45)NC(=O)[C@H](CCCCN)NC(=O)[C@H](Cc4c[nH]cn4)NC(=O)[C@H]([C@@H](C)O)NC(=O)[C@H](CCCNC(=N)N)NC(=O)[C@H](CO)NC(=O)[C@H](CSSC[C@H](NC(=O)[C@H](CCCCN)NC(=O)[C@H](CCCNC(=N)N)NC(=O)[C@H](CC(C)C)NC1=O)C(=O)N[C@@H]([C@@H](C)CC)C(=O)N1CCC[C@H]1C(=O)N[C@@H](CC(=O)O)C(=O)N[C@@H](CC(N)=O)C(=O)N[C@@H](CC(=O)O)C(=O)N[C@@H](CCCCN)C(=O)N3)NC(=O)[C@H](C(C)C)NC(=O)[C@H](CC(C)C)NC(=O)[C@H](CC(N)=O)NC(=O)[C@@H]1CCCN1C(=O)[C@H](CCCNC(=N)N)NC2=O [compound 637] | 6.15 | 5.10 | 7.02 |  |
| CCCC[C@@H]1NC(=O)CNC(=O)[C@H](CC(C)C)NC(=O)[C@@H](NC(=O)[C@@H](N)CC(=O)O)CSSC[C@@H]2NC(=O)[C@@H]3CSSC[C@@H](C(=O)N[C@@H](CCCCN)C(=O)N[C@@H](Cc4ccc(O)cc4)C(=O)N[C@H](C(=O)N[C@@H](Cc4ccccc4)C(N)=O)C(C)C)NC(=O)[C@H](Cc4c[nH]c5ccccc45)NC(=O)[C@H](CCCCN)NC(=O)[C@H](Cc4c[nH]cn4)NC(=O)[C@H]([C@@H](C)O)NC(=O)[C@H](CCCNC(=N)N)NC(=O)[C@H](CO)NC(=O)[C@H](CSSC[C@H](NC(=O)[C@H](CCCCN)NC(=O)[C@H](CCCNC(=N)N)NC(=O)[C@H](CC(C)C)NC1=O)C(=O)N[C@@H]([C@@H](C)CC)C(=O)N1CCC[C@H]1C(=O)N[C@@H](CC(=O)O)C(=O)N[C@@H](CC(N)=O)C(=O)N[C@@H](CC(=O)O)C(=O)N[C@@H](CCCCN)C(=O)N3)NC(=O)[C@H](C(C)C)NC(=O)[C@H](CC(C)C)NC(=O)[C@H](CC(N)=O)NC(=O)[C@@H]1CCCN1C(=O)[C@H](CCCNC(=N)N)NC2=O [compound 638] | 7.00 | 4.97 | 7.60 |  |
| CCCCCCCC[C@@H]1NC(=O)CNC(=O)[C@H](CC(C)C)NC(=O)[C@@H](NC(=O)[C@@H](N)CC(=O)O)CSSC[C@@H]2NC(=O)[C@@H]3CSSC[C@@H](C(=O)N[C@@H](CCCCN)C(=O)N[C@@H](Cc4ccc(O)cc4)C(=O)N[C@H](C(=O)N[C@@H](Cc4ccccc4)C(N)=O)C(C)C)NC(=O)[C@H](Cc4c[nH]c5ccccc45)NC(=O)[C@H](CCCCN)NC(=O)[C@H](Cc4c[nH]cn4)NC(=O)[C@H]([C@@H](C)O)NC(=O)[C@H](CCCNC(=N)N)NC(=O)[C@H](CO)NC(=O)[C@H](CSSC[C@H](NC(=O)[C@H](CCCCN)NC(=O)[C@H](CCCNC(=N)N)NC(=O)[C@H](CC(C)C)NC1=O)C(=O)N[C@@H]([C@@H](C)CC)C(=O)N1CCC[C@H]1C(=O)N[C@@H](CC(=O)O)C(=O)N[C@@H](CC(N)=O)C(=O)N[C@@H](CC(=O)O)C(=O)N[C@@H](CCCCN)C(=O)N3)NC(=O)[C@H](C(C)C)NC(=O)[C@H](CC(C)C)NC(=O)[C@H](CC(N)=O)NC(=O)[C@@H]1CCCN1C(=O)[C@H](CCCNC(=N)N)NC2=O [compound 639] | 7.48 | 5.77 | 7.82 |  |
| C#CC[C@@H]1NC(=O)[C@H](CC(=O)O)NC(=O)[C@@H]2CCCN2C(=O)[C@H]([C@@H](C)CC)NC(=O)[C@@H]2CSSC[C@@H]3NC(=O)[C@H](C(C)C)NC(=O)[C@H](CC(C)C)NC(=O)[C@H](CC(N)=O)NC(=O)[C@@H]4CCCN4C(=O)[C@H](CCCNC(=N)N)NC(=O)[C@H](CSSC[C@H](NC(=O)[C@@H](N)CC(=O)O)C(=O)N[C@@H](CC(C)C)C(=O)NCC(=O)N[C@@H](C)C(=O)N[C@@H](Cc4ccccc4)C(=O)N[C@@H](CCCNC(=N)N)C(=O)N[C@@H](CCCCN)C(=O)N2)NC(=O)[C@H](CSSC[C@@H](C(=O)N[C@@H](CCCCN)C(=O)N[C@@H](Cc2ccc(O)cc2)C(=O)N[C@H](C(=O)N[C@@H](Cc2ccccc2)C(N)=O)C(C)C)NC(=O)[C@H](Cc2c[nH]c4ccccc24)NC(=O)[C@H](CCCNC(=N)N)NC(=O)[C@H](Cc2c[nH]cn2)NC(=O)[C@H](CC(C)C)NC(=O)[C@H](CCCNC(=N)N)NC(=O)[C@H](CO)NC3=O)NC(=O)[C@H](CCCCN)NC(=O)[C@H](CC(=O)O)NC1=O [compound 640] (H-DCLGAFRKCIPD[Pra]DKCCRPNLVCSRLHRWCKYVF-NH2; disulfide 2-17, 9-23, 16-30) | 7.05 | < 5.30 | 6.99 |  |
| CC[C@H](C)[C@@H]1NC(=O)[C@@H]2CSSC[C@@H]3NC(=O)[C@H](C(C)C)NC(=O)[C@H](CC(C)C)NC(=O)[C@H](CC(N)=O)NC(=O)[C@@H]4CCCN4C(=O)[C@H](CCCNC(=N)N)NC(=O)[C@H](CSSC[C@H](NC(=O)[C@@H](N)CC(=O)O)C(=O)N[C@@H](CC(C)C)C(=O)NCC(=O)N[C@@H](CCSC)C(=O)N[C@@H](CC(C)C)C(=O)N[C@@H](CCCNC(=N)N)C(=O)N[C@@H](CCCCN)C(=O)N2)NC(=O)[C@H](CSSC[C@@H](C(=O)N[C@@H](CCCCN)C(=O)N[C@@H](Cc2ccc(O)cc2)C(=O)N[C@H](C(=O)N[C@@H](Cc2ccccc2)C(N)=O)C(C)C)NC(=O)[C@H](Cc2c[nH]c4ccccc24)NC(=O)[C@H](CCCCN)NC(=O)[C@H](Cc2c[nH]cn2)NC(=O)[C@H]([C@@H](C)O)NC(=O)[C@H](CCCNC(=N)N)NC(=O)[C@H](CO)NC3=O)NC(=O)[C@H](CCCCN)NC(=O)[C@H](CC(=O)O)NC(=O)[C@H](CC(N)=O)NC(=O)[C@H](CC(=O)O)NC(=O)[C@@H]2CCCN2C1=O [compound 641] (H-DCLGMLRKCIPDNDKCCRPNLVCSRTHKWCKYVF-NH2; disulfide 2-17, 9-23, 16-30) | 6.62 |  | 7.16 | < 5.30 |
